# Data as given in PMC11219871, “Epigenetic-based differentiation therapy for Acute Myeloid Leukemia” (Nature Communications, 2024).
# Where two headings read alike, the source gives them in different places.
# Test system: ML-2
# Assay: RNA-seq
# Format: cell-based, human
# Settings: for ABI1 Log2FC / CBFB Log2FC / CCR2 Log2FC / CD44 Log2FC / CDK6 Log2FC / CEBPB Log2FC / CSF3R Log2FC / CTNNBIP1 Log2FC / ELANE Log2FC / EP300 Log2FC / FLI1 Log2FC / FUT4 Log2FC / GATA2 Log2FC / HCLS1 Log2FC / ITGA4 Log2FC / ITGAM Log2FC / ITGB1 Log2FC / ITGB2 Log2FC / JUN Log2FC / MPO Log2FC / MYC Log2FC / NFE2 Log2FC / PIR Log2FC / RUNX1 Log2FC / SOX4 Log2FC / SPI1 Log2FC / TESC Log2FC / TRIB1 Log2FC / ZBTB46 Log2FC / ZFP36L1 Log2FC: ML-2, RNA-Seq
# Description: Transcriptomic analyses were performed following low-input 3′ end RNA sequencing approximation for characterization of transcriptional changes in ML-2 and HL-60 samples treated with CM-444 and CM-1758.
# Low-input 3′ end RNA-seq was performed as previously described[53],[54] with minor modifications. Briefly, RNA from 0.1 ×10^6 cells from each experimental condition was purified using a Dynabeads mRNA DIRECT Purification Kit (Thermo Fisher Scientific). For barcoded cDNA generation, polyadenylated RNA was retrotranscribed using an Affinity Script cDNA Synthesis Kit (Agilent Technologies), and barcoded primers also harboring T7 promoter and a partial Read2 sequence for illumine sequencing (CGATTGAGGCCGGTAATACGACTCACTATAGGGGGCGACGTGTGCTCTTCCGATCTXXXXXXNNNNTTTTTTTTTTTTTTTTTTTT, where XXXXXX is the cell barcode and NNN is a unique molecular identifier or UMI, which represents the same initial RNA molecule for future quantification). At this point, the samples were pooled (≤6 samples per pool) at equimolar ratios assessed by q-PCR.
# The samples were then treated with Exonuclease I (Thermo Fisher Scientific following a 1.2x positive SPRI-selection. Second-strand cDNA synthesis was then performed using a NEBNext Ultra II Directional RNA Second-Strand Synthesis Module (New England Biolabs) for 2 h at 16 °C, followed by a 1.4x positive solid-phase reverse immobilization (SPRI) cleanup. The samples were linearly amplified by T7 in vitro transcription using a T7 RNA Polymerase (New England Biolabs) for 16 h at 37 °C. After DNAse treatment (TURBO DNAse I, Thermo Fisher Scientific) for 15 min at 37 °C to remove dsDNA, samples were cleaned with a positive 1.2x SPRI-selection. RNA size, quality, and concentration were determined by analysis with a Qubit Fluorometer (Termo Fisher Scientific) and TapeStation (Agilent 4200 TapeSation System, Agilent Technologies). If necessary, RNA was fragmented in 200- to 300-bp fragments using Zn2+divalent cations followed by a 2x positive SPRI cleanup. Fragmented RNA was dephosphorylated using FastAP Thermosensitive Alkaline Phosphatase (Thermo Fisher Scientific) for 10 min at 37 °C to enhance RNA ligation yield. In this step, a partial Read1 ([…]) sequence for illumine sequencing was ligated to the 3′ end of the fragmented RNA using T4 RNA Ligase I (New England Biolabs). After a 1.5x positive SPRI cleanup, the RNA product was retrotranscribed using an Affinity Script cDNA Synthesis Kit (Agilent Technologies) and a specific retrotranscription primer ([…]). The library was then purified by 1.5x positive SPRI cleanup, and the yield of the previous steps was determined by q-PCR. Finally, PCR using KAPA HiFi HotStar Ready Mix (Kapa Biosystems) was performed for second-strand cDNA synthesis, illumine primers addition (Read1-P5: […] and Read2-P7: […]) and library amplification using the recommended cycle numbers to minimize over-amplification. The product was purified by a 0.7x positive SPRI cleanup. The quality of the final library was determined by q-PCR (based on the threshold cycle, or Ct, obtained for GAPDH (Fw: […], Rv: […]) or GUSB (Fw: […], Rv: […]) housekeeping genes calibrated per individual set of samples, Qubit Fluorometer (Thermo Fisher Scientific) and TapeStation (Agilent 4200 TapeStation System, Agilent Technologies). All libraries were pooled at equimolar ratios and sequenced on a NextSeq500 (Illumina) using 60 bp single-end reads at a minimum sequence depth of 10 million reads per sample.
# Raw reads were demultiplexed using bcl2fastq2 Conversion Software v2.19 (Illumina) to convert base call (BCL) files into FastQ files. The quality control of FastQ files was performed using FastQC (Bioinformatics Babraham Institute). Sequencing reads were aligned to hg19 human reference using Bowtie 2 (Johns Hopkins University) and quantified using quant3p script (github.com/ctlab/quant3p). […]
# [1] = ML-2, 25% GI50, 12 h, log2FC +/-1
SMILES,deregulated genes (RNA-seq),down-regulated genes (RNA-seq),up-regulated genes (RNA-seq),deregulated genes (RNA-seq) [1],down-regulated genes (RNA-seq) [1],up-regulated genes (RNA-seq) [1],ABI1 Log2FC,CBFB Log2FC,CCR2 Log2FC,CD44 Log2FC,CDK6 Log2FC,CEBPB Log2FC,CSF3R Log2FC,CTNNBIP1 Log2FC,ELANE Log2FC,EP300 Log2FC,FLI1 Log2FC,FUT4 Log2FC,GATA2 Log2FC,HCLS1 Log2FC,other results
"COc1cc2nc(-c3ccc(C)o3)cc(NCC3CCN(c4ncc(C(=O)NO)cn4)CC3)c2cc1OC [CM-444, 2-[4-[[[6,7-dimethoxy-2-(5-methyl-2-furyl)-4-quinolyl]amino]methyl]-1-piperidyl]pyrimidine-5-carbohydroxamic acid]",558,88,470,460,44,416,0.61,0.4078,0.3405,0.2468,-0.3705,0.009186,-0.2226,0.1064,-0.8925,0.282,0.279,-0.09706,1.078,0.03361,ITGA4 Log2FC: -0.1245; ITGAM Log2FC: 1.391; ITGB1 Log2FC: 0.4551; ITGB2 Log2FC: -0.139; JUN Log2FC: 1.102; MPO Log2FC: -1.303; MYC Log2FC: -0.4866; NFE2 Log2FC: 0.3613; PIR Log2FC: 1.319; RUNX1 Log2FC: -0.08636; SOX4 Log2FC: 0.2683; SPI1 Log2FC: 0.1755; TESC Log2FC: 0.4308; TRIB1 Log2FC: -0.2715; ZBTB46 Log2FC: -0.2139; ZFP36L1 Log2FC: 2.504
"COc1cc2nc(-c3cc(C)oc3C)cc(NCC3CCN(c4ncc(C(=O)NO)cn4)CC3)c2cc1OC [CM-1758, 2-[4-[[[2-(2,5-dimethyl-3-furyl)-6,7-dimethoxy-4-quinolyl]amino]methyl] -1-piperidyl]pyrimidine-5-carbohydroxamic acid]",3750,2024,1726,2520,1183,1337,1.097,0.03944,-0.7456,0.03189,-1.439,0.5234,-1.197,0.1531,-2.561,0.4661,-0.175,-1.092,2.602,-0.435,ITGA4 Log2FC: -1.164; ITGAM Log2FC: 1.457; ITGB1 Log2FC: 0.9913; ITGB2 Log2FC: -0.1511; JUN Log2FC: 1.4026; MPO Log2FC: -2.925; MYC Log2FC: -2.637; NFE2 Log2FC: -0.1388; PIR Log2FC: 0.9099; RUNX1 Log2FC: 0.04441; SOX4 Log2FC: 0.5561; SPI1 Log2FC: -1.467; TESC Log2FC: -0.171; TRIB1 Log2FC: -0.1972; ZBTB46 Log2FC: -0.02647; ZFP36L1 Log2FC: 4.387
